Where a name gives a salt, the structure may show the parent alone.
How the values were obtained:
[1] = target: T1, 5-hydroxytryptamine receptor 1A (Rattus norvegicus, UniProt P19327); test: Binding affinity by measuring displacement of [3H]-8-OH-DPAT from 5-hydroxytryptamine 1A receptor in rat hippocampus; format: tissue-based
T1 sequence (P19327 whole entry): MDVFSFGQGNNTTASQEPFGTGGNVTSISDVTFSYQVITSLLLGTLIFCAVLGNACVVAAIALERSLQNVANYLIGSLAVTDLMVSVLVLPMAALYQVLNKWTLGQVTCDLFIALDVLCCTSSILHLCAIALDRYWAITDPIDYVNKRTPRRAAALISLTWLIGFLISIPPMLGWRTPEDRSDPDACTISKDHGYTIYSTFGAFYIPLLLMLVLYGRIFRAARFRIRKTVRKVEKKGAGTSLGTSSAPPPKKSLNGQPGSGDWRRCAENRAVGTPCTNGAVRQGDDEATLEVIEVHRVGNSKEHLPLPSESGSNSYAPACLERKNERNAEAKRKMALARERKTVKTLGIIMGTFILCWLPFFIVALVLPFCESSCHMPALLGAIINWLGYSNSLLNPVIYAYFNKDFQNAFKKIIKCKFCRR

[2] = test system: Rattus norvegicus; test: Anticonflict activity on water lick conflict test in rats by measuring no. of shocks in 5 min. administered perorally at 3 mg/kg; format: functional; details: route oral
[3] = test system: Rattus norvegicus; test: Anticonflict activity on water lick conflict test in rats is no of shocks in 5 min. administered perorally 1 mg/kg (no. of rats); format: functional; details: route oral
[4] = test system: Mus musculus; test: Ability to reverse scopolamine-induced amnesia in a passive avoidance test to assess memory impairment administered perorally 3 mg/kg; format: functional; details: route oral
[5] = test system: Rattus norvegicus; test: Anticonflict activity on water lick conflict test in rats by measuring no. of shocks in 5 min. administered perorally at 30 mg/kg; format: functional; details: route oral
[6] = test system: Mus musculus; test: Ability to reverse scopolamine-induced amnesia in a passive avoidance test to assess memory impairment administered perorally 30 mg/kg; format: functional; details: route oral
[7] = test system: Mus musculus; test: Ability to reverse scopolamine-induced amnesia in a passive avoidance test to assess memory impairment administered perorally 10 mg/kg; format: functional; details: route oral
[8] = target: T1, 5-hydroxytryptamine receptor 1A; test: Inhibitory concentration against 5-hydroxytryptamine 1A receptor
[9] = target: T1, 5-hydroxytryptamine receptor 1A; test: Binding affinity for 5-hydroxytryptamine 1A receptor by use of [3H]8-OH-DPAT in male rat
[10] = test system: Mus musculus; test: Ability to reverse scopolamine-induced amnesia in a passive avoidance test to assess memory impairment administered perorally at 30 mg/kg; format: functional; details: route oral
[11] = test system: Rattus norvegicus; test: Anticonflict activity on water lick conflict test in rats by measuring no. of shocks in 5 min. administered perorally at 10 mg/kg; format: functional; details: route oral
[12] = test system: Rattus norvegicus; test: Anticonflict activity on water lick conflict test in rats by measuring no. of shocks in 5 min. administered perorally at 1 mg/kg; format: functional; details: route oral
[13] = test system: Mus musculus; test: Ability to reverse scopolamine-induced amnesia in a passive avoidance test to assess memory impairment administered perorally 1 mg/kg; format: functional; details: route oral
[14] = test system: Rattus norvegicus; test: Anticonflict activity on water lick conflict test in rats is no. of shocks in 5 min; administered perorally 10 mg/kg (no. of rats); format: functional; details: route oral
[15] = test system: Mus musculus; test: Ability to reverse scopolamine-induced amnesia in a passive avoidance test to assess memory impairment; administered perorally 5 mg/kg (no. of mice); format: functional; details: route oral
[16] = test system: Mus musculus; test: Ability to reverse scopolamine-induced amnesia in a passive avoidance test to assess memory impairment administered perorally 1 mg/kg (no. of mice); format: functional; details: route oral
[17] = target: D(2) dopamine receptor (Homo sapiens, UniProt P14416); test: Binding affinity for DA2 receptor
D(2) dopamine receptor, sequence (P14416 whole entry): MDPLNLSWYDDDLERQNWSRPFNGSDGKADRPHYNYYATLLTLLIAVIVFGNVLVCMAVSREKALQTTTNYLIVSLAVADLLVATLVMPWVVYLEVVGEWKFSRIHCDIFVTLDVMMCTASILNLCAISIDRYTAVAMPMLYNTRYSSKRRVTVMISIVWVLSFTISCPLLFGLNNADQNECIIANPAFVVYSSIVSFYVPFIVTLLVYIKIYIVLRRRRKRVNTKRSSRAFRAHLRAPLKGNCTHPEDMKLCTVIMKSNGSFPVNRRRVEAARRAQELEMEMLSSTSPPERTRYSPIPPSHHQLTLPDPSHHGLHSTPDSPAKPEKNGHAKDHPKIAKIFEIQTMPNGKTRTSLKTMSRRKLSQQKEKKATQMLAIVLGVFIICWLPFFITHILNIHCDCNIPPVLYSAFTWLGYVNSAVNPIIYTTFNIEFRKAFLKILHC

SMILES	IC50 [1] [nM]	also measured
O=C(OC1CCCCCC1)[C@H]1Cc2c(sc3ccccc23)CN1	55.2	
O=C(NC1CCCC1)[C@H]1Cc2c(sc3ccccc23)CN1	111	
O=C(NC1CCCCC1)[C@H]1Cc2c(sc3ccccc23)CN1	27.2	
CCC(CC)NC(=O)[C@H]1Cc2c(sc3ccccc23)CN1	126	
Cl.O=C(NC1CCCCC1O)[C@H]1Cc2c(sc3ccccc23)CN1 (stereo partly drawn)	148	No. of shocks [2]: 34.9; No. of shocks [3]: 21.6; Latency to step through [4]: 68.2 s; No. of shocks [5]: 26.1; Latency to step through [6]: 50.8 s; Latency to step through [7]: 41.6 s
CCCCCCNC(=O)[C@H]1Cc2c(sc3ccccc23)CN1	91.2	
O=C(NCC1CCCCC1)[C@H]1Cc2c(sc3ccccc23)CN1	20.2	
O=C(OC1CCCCC1)[C@H]1Cc2c(sc3ccccc23)CN1	50.4	
O=C(Nc1ccccc1)[C@H]1Cc2c(sc3ccccc23)CN1	272	
O=C(NC1CCCCCC1)[C@H]1Cc2c(sc3ccccc23)CN1	28.4	
CCCCCCCNC(=O)[C@H]1Cc2c(sc3ccccc23)CN1		IC50 [8]: 126 nM
O=C(NC1CCC1)[C@H]1Cc2c(sc3ccccc23)CN1	232	
Cl.O=C(NCc1ccc2c(c1)OCO2)[C@H]1Cc2c(sc3ccccc23)CN1	53.1	Ki [9]: 53.1 nM; No. of shocks [2]: 22.9; Latency to step through [10]: 104.7 s; Latency to step through [4]: 89 s; No. of shocks [11]: 28.3; No. of shocks [12]: 22.1; Latency to step through [13]: 94.6 s
O=C(NC1CCCCCCC1)[C@H]1Cc2c(sc3ccccc23)CN1	22.9	
O=C(NC12CC3CC(CC(C3)C1)C2)[C@H]1Cc2c(sc3ccccc23)CN1	61.6	
CC(C)(C)C1CCC(NC(=O)[C@H]2Cc3c(sc4ccccc34)CN2)CC1 (stereo partly drawn)	52.7	
CC1CCC(NC(=O)[C@H]2Cc3c(sc4ccccc34)CN2)CC1 (stereo partly drawn)	32.4	
CC1CCCCC1NC(=O)[C@H]1Cc2c(sc3ccccc23)CN1 (stereo partly drawn)	28	
O=C(OC1CCCC1)[C@H]1Cc2c(sc3ccccc23)CN1	121	
Cc1ccc(CNC(=O)[C@H]2Cc3c(sc4ccccc34)CN2)cc1	133	
C[C@H](NC(=O)[C@H]1Cc2c(sc3ccccc23)CN1)c1ccccc1	58.4	
O=C(NN1CCCCC1)[C@H]1Cc2c(sc3ccccc23)CN1	211	
O=C(OC1CCCCCCC1)[C@H]1Cc2c(sc3ccccc23)CN1	67.3	
O=C(NC1CCCCC1)[C@@H]1Cc2c(sc3ccccc23)CN1	> 5000	
O=C(NC1CC2CCC1C2)[C@H]1Cc2c(sc3ccccc23)CN1 (stereo partly drawn)	66.4	
O=C(NCc1ccc2c(c1)OCO2)C1Cc2c(sc3ccccc23)CN1 (single isomer, unassigned)	> 5000	
CN1C(=O)CN=C(c2ccccc2)c2cc(Cl)ccc21 [DIAZEPAM]		No. of shocks [14]: 25.6; Latency to step through [15]: 10.6 s
CN1[C@@H]2C[C@@H](OC(=O)[C@H](CO)c3ccccc3)C[C@H]1[C@@H]1O[C@@H]12 [SCOPOLAMINE]		Latency to step through [16]: 16 s
O=C1[C@@H]2[C@H]3CC[C@H](C3)[C@@H]2C(=O)N1CCCCN1CCN(c2ncccn2)CC1 [TANDOSPIRONE HYDROCHLORIDE]		Ki [17]: 28 nM

Reference: ChEMBL document CHEMBL1126894 (J Med Chem, 1993)
